In patent US7235626B1, “Structured peptide scaffold for displaying turn libraries on phage” (Genentech, Inc., priority 1999, dated 2007):
Where two headings read alike, the source gives them in different places. Positions of bridges follow the written chain, without caps; N, C: chain ends. No end group written: not given here.

Columns and labels:
[1] = Thiol-disulfide exchange equilibrium (GSH/GSSG): intramolecular disulfide formation; ddG=-RT ln(Ceff,X/Ceff,Leu), gly-asn turn peptides 1; conditions: the molecule shown is the open-chain precursor; 32-membered ring; water, ca. 0.15 M Tris, 1 mM EDTA, pH 8.10, 25 mM total glutathione; 0.375 mM; 20.0 °C; 1.5 h
[2] = Thiol-disulfide exchange equilibrium (GSH/GSSG redox buffer): intramolecular disulfide formation between two Cys of reduced peptide; Ceff=([pep_ox]/[pep_red])x([GSH]^2/[GSSG]), HPLC after acid quench; conditions: the molecule shown is the open-chain precursor; 32-membered ring; water, ca. 0.15 M Tris, 1 mM EDTA, pH 8.10, 25 mM total glutathione; 0.375 mM; 20.0 °C; 1.5 h
[3] = cited from earlier work
[4] = Circular dichroism spectra of peptides; assay type: physicochemical; conditions: 10° C.; 20 μM peptide in 20 mM potassium phosphate, pH 7.0
Protocol: Terminal serine and lysine residues were added to improve the solubility of some variants of the CD4 peptide, which are otherwise uncharged. A similar modification was made to bhpW as a control. Non-turn residues that differ between bhpW and the CD4 loop are underlined. Coelution of reduced and oxidized peptides prevented measurement of Ceff for the T2, N3 variant of the CD4 peptide. Circular dichroism spectra were acquired at 10° C. with an Aviv Instruments, Inc. Model 202 spectrophotometer; peptide concentrations were 20 μM in 20 mM potassium phosphate, pH 7.0.

CC(=O)N[C@@H](CS)C(=O)N[C@H](C(=O)N[C@@H](CC(=O)O)C(=O)N[C@@H](CCC(=O)O)C(=O)NCC(=O)N[C@@H](CC(N)=O)C(=O)N[C@@H](CCCCN)C(=O)N[C@@H](CC(C)C)C(=O)N[C@H](C(=O)N[C@@H](CS)C(N)=O)[C@@H](C)O)[C@@H](C)O [Ac-CTDEGNKLTC-NH2]
ring closure, dG (kcal/mol relative to X=Leu) [1]: 0.32

CC(=O)N[C@@H](CS)C(=O)N[C@H](C(=O)N[C@@H](Cc1ccccc1)C(=O)N[C@@H](CCC(=O)O)C(=O)NCC(=O)N[C@@H](CC(N)=O)C(=O)N[C@@H](CCCCN)C(=O)N[C@@H](CC(C)C)C(=O)N[C@H](C(=O)N[C@@H](CS)C(N)=O)[C@@H](C)O)[C@@H](C)O [Ac-CTFEGNKLTC-NH2]
ring closure, Ceff [2]: 88 mM

CC(=O)N[C@@H](CS)C(=O)N[C@H](C(=O)N[C@@H](CCCCN)C(=O)N[C@@H](CCC(=O)O)C(=O)NCC(=O)N[C@@H](CC(N)=O)C(=O)N[C@@H](CCCCN)C(=O)N[C@@H](CC(C)C)C(=O)N[C@H](C(=O)N[C@@H](CS)C(N)=O)[C@@H](C)O)[C@@H](C)O [Ac-CTKEGNKLTC-NH2]
ring closure, Ceff [2]: 52 mM

CC(=O)N[C@@H](CS)C(=O)N[C@H](C(=O)N[C@@H](CC(C)C)C(=O)N[C@@H](CCC(=O)O)C(=O)NCC(=O)N[C@@H](CC(N)=O)C(=O)N[C@@H](CCCCN)C(=O)N[C@@H](CC(C)C)C(=O)N[C@H](C(=O)N[C@@H](CS)C(N)=O)[C@@H](C)O)[C@@H](C)O [Ac-CTLEGNKLTC-NH2]
ring closure, dG (kcal/mol relative to X=Leu) [1]: 0 | ring closure, Ceff [2]: 85 mM

CC(=O)N[C@@H](CS)C(=O)N[C@H](C(=O)N[C@@H](CC(N)=O)C(=O)N[C@@H](CCC(=O)O)C(=O)NCC(=O)N[C@@H](CC(N)=O)C(=O)N[C@@H](CCCCN)C(=O)N[C@@H](CC(C)C)C(=O)N[C@H](C(=O)N[C@@H](CS)C(N)=O)[C@@H](C)O)[C@@H](C)O [Ac-CTNEGNKLTC-NH2]
ring closure, Ceff [2]: 52 mM

CC(=O)N[C@@H](CS)C(=O)N[C@H](C(=O)N[C@H](C(=O)N[C@@H](CCC(=O)O)C(=O)NCC(=O)N[C@@H](CC(N)=O)C(=O)N[C@@H](CCCCN)C(=O)N[C@@H](CC(C)C)C(=O)N[C@H](C(=O)N[C@@H](CS)C(N)=O)[C@@H](C)O)[C@@H](C)O)[C@@H](C)O [Ac-CTTEGNKLTC-NH2]
ring closure, dG (kcal/mol relative to X=Leu) [1]: 0.3

CC(=O)N[C@@H](CS)C(=O)N[C@H](C(=O)N[C@H](C(=O)N[C@@H](CCC(=O)O)C(=O)NCC(=O)N[C@@H](CC(N)=O)C(=O)N[C@@H](CCCCN)C(=O)N[C@@H](CC(C)C)C(=O)N[C@H](C(=O)N[C@@H](CS)C(N)=O)[C@@H](C)O)C(C)C)[C@@H](C)O [Ac-CTVEGNKLTC-NH2]
ring closure, dG (kcal/mol relative to X=Leu) [1]: 0.09 | ring closure, Ceff [2]: 73 mM

CC(=O)N[C@@H](CS)C(=O)N[C@H](C(=O)N[C@@H](Cc1c[nH]c2ccccc12)C(=O)N[C@@H](CCC(=O)O)C(=O)NCC(=O)N[C@@H](CC(N)=O)C(=O)N[C@@H](CCCCN)C(=O)N[C@@H](CC(C)C)C(=O)N[C@H](C(=O)N[C@@H](CS)C(N)=O)[C@@H](C)O)[C@@H](C)O [Ac-CTWEGNKLTC-NH2]
ring closure, dG (kcal/mol relative to X=Leu) [1]: -0.53 | ring closure, Ceff [2]: 210 mM

CC(=O)N[C@@H](CS)C(=O)N[C@H](C(=O)N[C@@H](Cc1ccc(O)cc1)C(=O)N[C@@H](CCC(=O)O)C(=O)NCC(=O)N[C@@H](CC(N)=O)C(=O)N[C@@H](CCCCN)C(=O)N[C@@H](CC(C)C)C(=O)N[C@H](C(=O)N[C@@H](CS)C(N)=O)[C@@H](C)O)[C@@H](C)O [Ac-CTYEGNKLTC-NH2]
ring closure, dG (kcal/mol relative to X=Leu) [1]: -0.08 | ring closure, Ceff [2]: 98 mM

CC(C)C[C@H](NC(=O)[C@H](Cc1ccccc1)NC(=O)[C@H](CO)NC(=O)CNC(=O)[C@H](CCC(N)=O)NC(=O)[C@H](CC(N)=O)NC(=O)CNC(=O)[C@H](CS)NC(=O)[C@@H](N)CO)C(=O)N[C@H](C(=O)N[C@@H](CS)C(=O)N[C@@H](CCCCN)C(N)=O)[C@@H](C)O [H-SCGNQGSFLTCK-NH2]
ring closure, Ceff [2]: 45 mM

CC(C)C[C@H](NC(=O)[C@H](Cc1ccccc1)NC(=O)[C@H](CO)NC(=O)CNC(=O)[C@H](CCC(N)=O)NC(=O)[C@H](Cc1c[nH]c2ccccc12)NC(=O)CNC(=O)[C@H](CS)NC(=O)[C@@H](N)CO)C(=O)N[C@H](C(=O)N[C@@H](CS)C(=O)N[C@@H](CCCCN)C(N)=O)[C@@H](C)O [H-SCGWQGSFLTCK-NH2]
ring closure, Ceff [2]: 48 mM

CC(C)C[C@H](NC(=O)[C@H](CCCCN)NC(=O)[C@H](CC(N)=O)NC(=O)CNC(=O)[C@H](CCC(=O)O)NC(=O)[C@H](Cc1c[nH]c2ccccc12)NC(=O)[C@@H](NC(=O)[C@H](CS)NC(=O)[C@@H](N)CO)[C@@H](C)O)C(=O)N[C@H](C(=O)N[C@@H](CS)C(=O)N[C@@H](CCCCN)C(N)=O)[C@@H](C)O [H-SCTWEGNKLTCK-NH2]
ring closure, Ceff [2]: 273 mM

CC(C)C[C@H](NC(=O)[C@H](Cc1ccccc1)NC(=O)[C@H](CO)NC(=O)CNC(=O)[C@H](CCC(N)=O)NC(=O)[C@H](Cc1c[nH]c2ccccc12)NC(=O)[C@@H](NC(=O)[C@H](CS)NC(=O)[C@@H](N)CO)[C@@H](C)O)C(=O)N[C@H](C(=O)N[C@@H](CS)C(=O)N[C@@H](CCCCN)C(N)=O)[C@@H](C)O [H-SCTWQGSFLTCK-NH2]
ring closure, Ceff [2]: 120 mM

GEWTYDDATKTFTVTE (turn peptide) [hairpin peptide derived from the B1 domain of protein G]
hairpin population ([3]; 273 K, from denaturation study): 80% | ΔH of folding ([3]; assuming ΔCp=0): -11.6 kcal/mol | ΔS of folding ([3]; assuming ΔCp=0): −39 cal/mol K | hairpin population ([3]; in water, NMR estimate): about 50%

IYSNPDGTWT (turn peptide) [variant of tendamistat-based model peptide]
hairpin population ([3]; in water, NMR estimate): 30%

IYSNSDGTWT (turn peptide)
hairpin population ([3]; in water, NMR estimate): 30%

KKYTVSINGKKITVSI (turn peptide)
ΔG of hairpin formation ([3]; 298 K): 0.08 kcal/mol | hairpin population ([3]; in water, 303 K): 50%

MQIGVKNPDGTITLEV (turn peptide)
hairpin population ([3]; in water, NMR estimate): ca. 80%

RGITVNGKTYGR (turn peptide) [designed β-hairpin peptide, type I′ turn flanked by three-residue strands]
hairpin population ([3]; in water, NMR estimate): about 30%

SCTNQGSFLTCK-NH2 (disulfide 2-11 (inferred)) [T2, N3 variant of the CD4 peptide]
[θ]215 [4]: −5,000 deg cm^2 dmol^−1

YITNSDGTWT (turn peptide) [model peptide forming a register-shifted hairpin]
hairpin population ([3]; in water, NMR estimate): 80%
